Laboratory results as given in US20060009433A1, “Neuroprotective spirostenol pharmaceutical compositions” (priority 2003, published 2006).

What was measured:
[1] = tested on: NT2 cells; test: Expression of GFRα receptor proteins in NT2 cells (immunoblot); type: cell-based, human; conditions: 25 μM; 6 days
Protocol: Cells were fixed with newly prepared 3.7% formaldehyde for 15 minutes and blocked by blocking reagent (Zymed Laboratories, San Francisco, Calif., USA). Inuunostaining was performed using rabbit anti-NF200, anti-NF145 and anti-NF70 (all at 1:200), and goat anti-GFRα1, anti-GFRα2 and anti-GFRα3 (all at 1:100); Santa Cruz Biotechnology (Santa Cruz, Calif., USA). All antibodies were used at 200 μg/ml. After overnight incubation at 4° C., the immunoreactivity was detected using horseradish peroxidase-conjugated anti-rabbit or anti-mouse IgG for 1 hour at room temperature and visualized using AEC.
Cells were then washed with phosphate-buffered saline (PBS) and lysed with loading buffer. Proteins were resolved by sodium dodecyl sulfate polyacrylamide gel electrophoresis (SDS-PAGE) on 4-20% gradient acrylamide-bis-acrylamide gel at 125 V for 2 hours and electrotransferred onto nitrocellulose membranes. After blocking with 5% nonfat milk, the membranes were subjected to immunoblot analysis by incubation overnight with rabbit anti-NF200, anti-NF145 and anti-NF70 (all at 1:4000) (Chemicon International, Temecula, Calif., USA) and goat anti-GFRα1, anti-GFRα2 and anti-GFRα3 (all at 1:500) (200 μg/ml; Santa Cruz Biotechnology, Inc., Santa Cruz, Calif., USA), goat anti-rabbit or rabbit anti-goat IgG-horseradish peroxidase being used as the secondary antibody (1:5000) (Zymed Laboratories, San Francisco, Calif., USA). Protein bands were visualized using ECL reagents (Amersham Pharmacia Biotech, Piscataway, N.J., USA). Image-densitometric analyses of the immunoreactive protein bands were performed using OptiQuant-image analysis software (Packard BioScience, Meriden, Conn., USA). Glyceraldehyde-3-phosphate dehydrogenase (GAPPH) served as an internal standard.

[2] = tested on: human NT2 cells; test: MTT assay, glutamate-induced toxicity in NT2 cells; type: cell-based; conditions: 5 mM glutamate, three days; 1 to 50 μM compound; data not shown
[3] = target: T1, Aβ1-40 (Homo sapiens, UniProt P05067); test: CPBBA, Aβ1-40; type: binding
T1 construct: purchased American Peptide Co. (Sunnyvale, Calif.)
T1 sequence (P05067 672-711): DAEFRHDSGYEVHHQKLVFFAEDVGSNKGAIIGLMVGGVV
Protocol: At the end of the incubation time, samples were separated by 1.5% agarose (Type I-B) gel electrophoresis and transferred to nitrocellulose membrane (Schleicher & Schuell, Keene, N.H.) in 10×SSC buffer. The membrane was exposed to tritium-sensitive screen and analyzed by phosphoimaging using the Cyclone Storage phosphor system (Packard BioScience, Meridien, Conn.). Image-densitometric analysis was performed using the OptiQuant software (Packard). […] Low molecular weight unincorporated 22i-hydroxycholesterol is separated and eliminated during electrophoresis.

[4] = tested on: differentiated NT2N neuronal cells; test: MTT assay, viability of differentiated NT2N neuronal cells; type: cell-based, human
Source text: During CNS development in vivo, cells actively participate in two opposing processes: proliferation and death (Ross, Trends Neurosci., 19, 62 (1996)). In NT2 cells, early programmed cell death (apoptosis) has been associated with the induction of differentiation by RA, it occurs mainly in undifferentiated cells, and it coincides with first detection of the neuronal phenotye (NT2N), i.e., significant apoptotic cell death could be quantified during the third and fourth days of the RA treatment using annexin V labeling as a marker of apoptosis (Guillemain et al., J. Neurosci. Res., 71, 38 (2003)). […] Thus, apoptotic cell death of undifferentiated NT2 cells also occurred during 22R-hydroxycholesterol-induced differentiation.

[5] = tested on: PC12 cells; test: Cellular ATP levels (ATPLite-M) in Aβ-treated PC12 cells; type: cell-based, rat; conditions: 0.1 and 1.0 μM Aβ
Protocol: PC12 cells (rat pheochromocytoma neurons) from ATCC (Manassas, Va.) were cultured at 37° C. and 5% CO2 in RPMI 1640 medium devoid of glutamine and supplemented with 10% fetal bovine serum and 5% horse serum. Yao Z, Drieu K and Papadopoulos V., The Gingko biloba extract EGb 761 rescues PC12 neuronal cells from β-amyloid-induced cell death by inhibiting the formation of (3-amyloid-derived diffusible neurotoxic ligands, Brain Res, 889, 181-190 (2001). Cells were seeded in 96-well plates (8×10^4 cells/well). After an overnight period of incubation, increasing concentrations of aggregated Aβ (0.1, 1 and 10 μM) were added to the cells in the presence or absence of the indicated concentrations of the SP compounds to be tested. After 72-hours incubation time various parameters, markers of cell viability, were determined. Mouse MA-10 tumor Leydig cells were maintained at 37° C. in DMEM/Ham's F12 (Biofluids, Rockville, Md.) medium supplemented with 5% heat-inactivated fetal calf serum and 2.5% horse serum in 5% CO2. Cells were plated on 96-well plates at the density of 2.5×10^4 cells/well for overnight. The cells were stimulated with the indicated concentrations of the various SP compounds in 0.2 ml/well serum-free medium for 2 hours. The culture medium was collected and tested for progesterone production by radioimmunoassay.
Cellular ATP concentrations were measured using the ATPLite-M™ luminescence assay (Packard BioSciences Co.). For this assay, cells were cultured on black 96-well ViewPlate™ and the ATP concentrations were measured on a TopCount NXT™ counter (Packard BioSciences Co.) following the recommendations of the manufacturer.

[6] = tested on: human NT2 cells; test: Trypan blue dye exclusion assay, NT2 cells; type: cell-based; conditions: 25 μM steroid, 72 hours
Protocol: Rat PC12 cells were cultured as previously described. Yao et al., Brain Res. 889, 181-190 (2001). Human NT2 precursor (Ntera2/D1 teratocarcinoma) cells were obtained from Stratagene (La Jolla, Calif.) and cultured following the instructions of the supplier. Differentiated human NT2 neurons (NT2N) were obtained after treatment of the NT2 precursor cells with retinoic acid. Andrews, Dev. […] Aβ was dissolved in media and used either in the aggregated (left overnight at 4° C.) or soluble (containing oligomers such as dimers and tetramers) forms examined by electrophoresis as previously described. Yao et al., Brain Res. (2001). […] Id. Cell viability was measured using the trypan blue exclusion method as previously described. Id. In brief, for these studies, cells were treated for 72 hours with steroids in the presence or absence of increasing concentrations of Aβ. At the end of the incubation, the cells were washed three times with PBS and incubated for 15 minutes with 0.1% trypan blue stain solution at room temperature. After washing three times with PBS, 0.1 N NaOH was added to the cells and trypan blue staining was quantified using the Victor quantitative detection spectrophotometer (EGG-Wallac, Gaithersburg, Md.) at 450 nm. Cell protein levels were determined in the same samples by the method of Bradford (Bradford, Anal. Biochem., 72, 248-254 (1976)), where coomassie blue staining is detected at 590 nm.
The results obtained from using MTT assay were further confirmed with the trypan blue dye exclusion assay. […] Levels of viability were measured using the trypan blue assay as described under Materials and Methods. Results are expressed as fold trypan blue stained cells per total cell protein over control untreated cells. Results shown are means±SD (n=6-12).

## CC(C)CC[C@@H](O)[C@@H](C)[C@H]1CC[C@H]2[C@@H]3CC=C4C[C@@H](O)CC[C@]4(C)[C@H]3CC[C@]12C [SP222, 22R-hydroxycholesterol]
[1]
  decrease of GFRα3 protein expression: about 16%
  expression of GFRα1: no significant effect
  increase of GFRα2 protein expression over the control level: 45%
[2]
  protection against glutamate-induced decrease in cell viability: failed to protect the cells
[3]
  binding to Aβ1-40: barely interacts
[4]
  effect on viability of differentiated NT2N neuronal cells: had no effect
[5]
  reversal of Aβ-induced decrease in ATP levels: did not block
[6]
  rescue from Aβ1-42-induced cell death: rescued
  rescue from Aβ25-35-induced cell death: Neither 22R-hydroxycholesterol nor DHEA could rescue
